Drawing on ChEMBL document CHEMBL3507680, “University of Dundee, Gates Library screen for HepG2 cell viability”, this text covers cytotoxicity for 98 compounds.

The series in a line: Human HepG2 cell viability assay in 384 well format. Particulars: HepG2 cells, read-out: Inhibition. Also noted: dose 125 nL, time 70.5 hour; cytotoxicity at 70.5 h: concentration not given beside the values. Format: toxicity, cell-based.
With `O=C(NCCCN1CCOCC1)c1ccc(Cl)cc1Cl`, the cytotoxicity at 70.5 h was 2.42%. To `CCCN1CCC(NC(=O)Nc2ccc(OC)c(OC)c2)CC1` belongs -1.26%; to `Cc1oncc1C(=O)N1CCC(O)(CN2CCOCC2)C(C)(C)C1` (stereo not drawn), -2.15%. Under `CC(=O)N[C@@H]1CN(C(=O)c2cc(C)oc2C)C[C@H]1c1ccc(C)o1` stands 23.3%; under `Cc1cccc(C)c1OC1CN(C(=O)C2CC(=O)N(C(C)(C)C)C2)C1` (stereo not drawn), 18.1%. Take `Cc1ccc([C@@H]2CN(C(=O)c3ccccc3C)C[C@H]2N(C)C)cc1`: the cytotoxicity at 70.5 h came to 2.46%. Under `Cc1noc(C)c1CN1C(=O)[C@H]2CC[C@@H]1CN(Cc1ncc[nH]1)C2` stands -0.471%; under `CCN(CC)S(=O)(=O)NC1CCCc2nc(-c3ccccc3)ncc21` (stereo not drawn), -7.72%; under `CCN(C)C[C@@H]1CN(C(=O)NC2CCCCC2)C[C@@H]1CO`, -10.1%.

Regarding `CC1(C(=O)NCc2cccnc2Oc2ccc(F)c(F)c2)CCCNC1` (stereo not drawn), the cytotoxicity at 70.5 h was 8.1%. To `CCCc1cc(CN(C)C2CC(C)(C)NC(C)(C)C2)n[nH]1` belongs -4.42%; to `Cc1[nH]c2ccc(C#N)cc2c1CCNc1ncnc2c1CCNCC2`, -1.54%.

`CCCn1nc(C)c(CNC(=O)C2COc3ccc(OC)cc3C2)c1C` (stereo not drawn): the cytotoxicity at 70.5 h is -2.92%.

As to `CN(C)c1cnn(Cc2nc3ccccc3n2C)c(=O)c1`, the cytotoxicity at 70.5 h was -12.8%.

On to `CC(=O)c1cc(CC(=O)NCc2ccsc2)cs1`, for which the cytotoxicity at 70.5 h is -1.03%. Under `O=C(CCc1cc2n(n1)CCN(Cc1ccncc1)C2)N1CCCC1` stands 18.6%. In the case of `CN(C)c1ccc(-c2cc(C(=O)O)cc(S(=O)(=O)NC3CC3)c2)cc1`, the cytotoxicity at 70.5 h is -12.9%.

As to `COCC(=O)N1CCCN(c2ncnc3c2CCNCC3)CC1`, the cytotoxicity at 70.5 h was -5.03%.

`Cc1n[nH]c(C)c1CNc1ccc(-c2nc(C3CC3)no2)cn1`: the cytotoxicity at 70.5 h was -0.0598%.

In the case of `CN(C)CCCn1ccnc1C1CCN(C(=O)Cc2cccnc2)CC1`, the cytotoxicity at 70.5 h was 9.19%.

For `COCc1noc(CCNc2nc(CC3CC3)nc3c2CCNCC3)n1`, the cytotoxicity at 70.5 h was determined as 8.9%.

For `Cc1cc2cccc(NC(=O)N3CC[C@@H]4CC[C@H](C3)N4C)c2o1`, the cytotoxicity at 70.5 h is -5.41%. Under `CCS(=O)(=O)N1CCC(c2nccn2Cc2ccncc2)CC1` stands -1.9%; under `c1cc2c(cc1-c1noc3c1CN(C1CCSCC1)CC3)OCO2`, 12.6%. Under `Oc1cccc(-c2cc(C3CCN(Cc4cncnc4)C3)ccn2)c1` (stereo not drawn) stands -3.45%; under `Cc1nn(C)cc1CN1CCCn2nc(CNC(=O)C3CCC3)cc2C1`, -3.2%. Under `CCCN1CCCC2(CCN(S(=O)(=O)c3cccnc3)C2)C1=O` (stereo not drawn) stands 2.74%.

Take `COc1cccc(-c2n[nH]c3c2CN(C(=O)C2=C(C)OCCO2)CC3)c1`: the cytotoxicity at 70.5 h is -4.06%.

On to `O=C(c1cnc[nH]1)N1CCC(Oc2cccnc2)CC1`, for which the cytotoxicity at 70.5 h is -8.28%. For the compound `CN(C)C(=O)c1coc(COc2ccccc2)n1`, the cytotoxicity at 70.5 h was 15.6%. Under `O=C1CCC2(CCCN(c3ncnc4[nH]cnc34)C2)CN1CCCO` (stereo not drawn) stands -14.3%. To `CC(=O)c1cnc(NCCN2CCCC2)nc1C` belongs -0.135%. Under `CC(=O)c1cc(CN2CCCCC2c2nc3cc(F)ccc3[nH]2)cs1` (stereo not drawn) stands -5.07%. Take `CC(=O)c1cc(CC(=O)N2CCN(S(=O)(=O)c3ccccc3)CC2)cs1`: the cytotoxicity at 70.5 h was -1.54%.

With `Cc1ccc(Cl)cc1-n1nnnc1C1(N2CCCC2)CCCCC1`, the cytotoxicity at 70.5 h was -12.7%. With `Cc1ccc(OCCN(C)C(=O)CCCC(N)=O)c(C)c1`, the cytotoxicity at 70.5 h was -5.93%. Regarding `CC(C)N1CCC(CC(=O)N(C)CC(=O)c2ccc(O)cc2)CC1`, the cytotoxicity at 70.5 h is -1.48%. With `Cc1cc(CN2CCC(C3CCN(CCc4ccccc4)CC3)C2)[nH]n1` (stereo not drawn), the cytotoxicity at 70.5 h is -0.097%. To `O=C1OCCN1CCNCC1(O)CCCN(CCC2CCCCC2)C1=O` (stereo not drawn) belongs -5.99%; to `O=C1NCCN(Cc2cccnc2)C1CC(=O)N1CCc2n[nH]cc2C1` (stereo not drawn), -0.172%; to `COc1ccc2c(c1)ncn2C[C@]1(O)CCCN2CCCC[C@@H]21`, -13.3%. To `Cn1ccnc1-c1cn(Cc2cn3c(n2)SCC3)nn1` belongs -5.95%; to `Cn1ccnc1CCC1CCCCN1Cc1cnc(N2CCCC2)nc1` (stereo not drawn), 22.9%; to `O=C(CCn1cc(Cl)cn1)N1CCC2(CC1)OCCCC2O` (stereo not drawn), 12%. To `COCC(=O)N1C[C@@H](CN2CCCN(C)CC2)[C@@H](CO)C1` belongs -4.72%. As to `O=C(c1cncc(F)c1)N1CCC(c2ncc[nH]2)CC1`, the cytotoxicity at 70.5 h is -7.04%. For the compound `COc1cccc(OC2CN(C(=O)c3sccc3C)C2)c1`, the cytotoxicity at 70.5 h is -4.06%. To `COc1ccc(CCC2CCCN(C(=O)c3cnc(N)nc3C)C2)cc1` (stereo not drawn) belongs -18.9%; to `CCN1CCC(CNC(=O)C(c2ccccc2F)N(C)C)(N(C)C)CC1` (stereo not drawn), -2.78%.

On to `Cc1ccc(C(=O)N2CCCn3nc(CCC(=O)O)cc3C2)cc1Cl`, for which the cytotoxicity at 70.5 h is -2.03%. To `Cc1ccc(CN2CCNC(C(=O)NC3CC3)C2)cc1C` (stereo not drawn) belongs -10.4%; to `CC(C)=CCN1CC2(CCN(Cc3c(F)cccc3F)CC2)CC1=O`, 23.4%. To `N#Cc1cccc(C(=O)N2C[C@H](CO)C[C@H](CN3CCCC3)C2)c1` belongs 2.99%. Regarding `CC(=O)N[C@@H]1CN(C(=O)c2cnccn2)C[C@H]1c1ccc(C)cc1`, the cytotoxicity at 70.5 h was -11.4%. To `Cc1cccnc1NCCNC(=O)C1CCN(C(=O)N(C)C)CC1` belongs 12.2%; to `COCCn1cnnc1Cn1ccnc1-c1ccccc1C`, 1.73%. Turning to `COc1ccccc1CCN[C@@H]1c2ccccc2C2(CCNCC2)[C@H]1O`, the cytotoxicity at 70.5 h was -4.74%.

For the compound `Cc1ccc2[nH]c(CN(C)c3cc(CCN)nc(C)n3)nc2c1`, the cytotoxicity at 70.5 h was -8.93%. Under `CCOc1ccc2nc(CN3CCOC(CN)C3)ccc2c1` (stereo not drawn) stands -3.44%. To `OCC1(CC2CC2)CCCN(Cc2cnc(C3CCCCC3)nc2)C1` (stereo not drawn) belongs -5.05%; to `COCc1cc(NCCc2ccc(OC)cc2)n2nccc2n1`, -24.5%. As for `COCC1(C(=O)N2CCC(c3nccn3CC3CC3)CC2)CCC1`, the cytotoxicity at 70.5 h was 2.4%. To `CN(C(=O)CN1CCCC1=O)C1CCCN(C2Cc3ccccc3C2)C1` (stereo not drawn) belongs -3.18%; to `CC(C)NS(=O)(=O)c1cc(C(=O)O)cc(-c2ccccc2F)c1`, -10.8%. Under `CC(C)c1nccc(CN(C)Cc2cccc(-n3cccn3)c2)n1` stands -1.47%. To `CC(C)Cn1cncc1Cn1cccc(C(F)(F)F)c1=O` belongs -2.53%. With `CCc1cc(-c2cc[nH]n2)nc(N2CCCC2)n1`, the cytotoxicity at 70.5 h was -7.99%. Under `Cc1cc(CNC(=O)CC2CCN(C(C)C)CC2)n(C)n1` stands 16.3%; under `Cc1ccc(C)c(S(=O)(=O)N2CCN(C)C3(CCC(=O)N(C)CC3)C2)c1` (stereo not drawn), -13.3%.

In the case of `CN(C)CCN(Cc1ccsc1)C(=O)C1=NNC(=O)CC1`, the cytotoxicity at 70.5 h is -9.01%.

As to `CCCC(C)NCc1cnc(-c2cccc(C)c2)nc1` (stereo not drawn), the cytotoxicity at 70.5 h worked out at 1.72%. Turning to `CC(=O)c1ccc(NCc2cc3n(n2)CCCN(S(C)(=O)=O)C3)nc1`, the cytotoxicity at 70.5 h was -1.18%. To `COc1cc(-c2nc3c([nH]2)CCCNC3=O)ccc1OC(C)C` belongs -3.41%; to `CCCOCCN1CCC2(CC1)CC(=O)N(Cc1cc(F)cc(F)c1)C2`, -3.73%. With `COc1ccccc1CN1C(=O)O[C@@H]2CN(C(C)C)C[C@@H]21`, the cytotoxicity at 70.5 h was -0.224%. To `O=C(c1ccccc1C1CCNC1)N1CCC(N2CCC(O)CC2)CC1` (stereo not drawn) belongs -12.4%; to `CSc1nnc(CC2CCN(C(=O)COc3cccnc3)CC2)n1C`, -8.54%; to `NC(=O)C1CCN(C(C(=O)O)c2ccc(Cl)c(C(F)(F)F)c2)CC1` (stereo not drawn), 13.4%. Under `Cc1cc(CN(C)C(=O)CN2CC3(CCNCC3)OC2=O)n(C)n1` stands -9.14%; under `c1ccc(CN2CCC(NCCSc3ncn[nH]3)C2)cc1` (stereo not drawn), 30.4%. For the compound `CCNc1ccnc(N2CCCC(CCOC)(C(=O)O)C2)n1` (stereo not drawn), the cytotoxicity at 70.5 h is 23.1%. Under `CCCc1cc(N2CCC(Cc3cccc(C(N)=O)c3)C2)nc(C)n1` (stereo not drawn) stands -5.44%; under `CC(C)(C(=O)N1CCCC(OCc2cccnc2)C1)n1cccc1` (stereo not drawn), -4.94%. To `COc1ccccc1CC(=O)N1CCCC(c2nccn2CC(N)=O)C1` (stereo not drawn) belongs 23.1%. Turning to `CCc1cccc(C)c1NC(=O)c1ccccc1N(C)S(C)(=O)=O`, the cytotoxicity at 70.5 h came out at 26.1%.

For `Cc1ccsc1CCNC(=O)CCC1CCCCN1C` (stereo not drawn), the cytotoxicity at 70.5 h was -15%.

Turning to `CC(C)(C)NS(=O)(=O)c1ccc(NC(=O)C2CC2)cc1`, the cytotoxicity at 70.5 h stood at 7.98%. Under `COc1coc(CN2CCCC(CCc3ccc(F)cc3)C2)cc1=O` (stereo not drawn) stands 2.53%.

Turning to `CC(c1ccco1)n1cc(-c2cc(CN3CCCC3)cs2)nn1` (stereo not drawn), the cytotoxicity at 70.5 h was -0.331%. Under `COc1ccccc1Oc1ncccc1CNC(=O)[C@@H](N)[C@@H](C)O` stands -1.67%. With `CC(=O)N1CCCN(C(C(=O)O)c2ccccc2OC(F)(F)F)CC1` (stereo not drawn), the cytotoxicity at 70.5 h is -7.53%. To `CCC(C(=O)N(Cc1ccccc1OC)C1CC1)n1cccn1` (stereo not drawn) belongs -10.3%. Turning to `Cc1nc(C2CCCNC2)cc(N(C)CCc2cn[nH]c2)n1` (stereo not drawn), the cytotoxicity at 70.5 h was determined as 20.1%.

Take `O[C@H]1[C@H](NCCSc2ccccn2)c2ccccc2C12CCNCC2`: the cytotoxicity at 70.5 h came to 1.07%. To `CC(C)(O)CCc1ccc(C(=O)NCCC2CCOC2)cc1` (stereo not drawn) belongs -2.2%; to `CC(C)N1CCCC(C(=O)N(C)CCCc2cnn(C)c2)C1` (stereo not drawn), -2.41%; to `Cc1cn(CC(=O)Nc2cc(C(C)C)nn2C)cn1`, -10.1%. As to `Cc1cc(NCc2ccc(O)cc2)n2nc(C)cc2n1`, the cytotoxicity at 70.5 h was -2.08%.
